Reference: the supplement of paper PMC10307832

Assays:
Experiment in all cases: relative viability (nuclei count vs DMSO), 5 days (fraction); higher = more cells survive
[1] = compound: CN(C/C=C/C1=CC=C(C=C1)Cl)CC2=CC=CC=C2N(CCO)S(=O)(=O)C3=CC=C(C=C3)OC [KN-93]
Procedure, shortened: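 Lung cancer cell lines in 1536-well plates were exposed by pinning to five library-drug doses (not always all listed) √10 apart, following an overnight hold at 37 °C. MetaXpress counted Hoechst-stained nuclei from 4× images taken after 5 days without medium change. Viability is the median ratio of treated-well to vehicle-well nuclei across plates. Plates required control CV below 25% and at least one doubling.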

[2] = compound: CN(C/C=C/C1=CC=C(C=C1)Cl)CC2=CC=CC=C2N(CCO)S(=O)(=O)C3=CC=C(C=C3)OC [KN-93] + Nc1nc2[nH]cc(CCc3ccc(C(=O)N[C@@H](CCC(=O)O)C(=O)O)cc3)c2c(=O)[nH]1 [Pemetrexed] (partner 0.2 µM)
Procedure, shortened: (§1)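 Lung cancer cell lines were seeded in 1536-well plates and dosed by pin tool the next day, with either a single drug or a fixed anchor-drug dose combined with five library-drug doses (not always all listed) spaced in √10 steps. Five days later, one step fixed the cells and stained their nuclei (final 0.05% Triton X-100, 1% formaldehyde, 1 ug/ml Hoechst), and nuclei were counted on 4× images. Relative viability is the nuclei count in treated wells divided by the count in vehicle wells, and each value is the median of duplicate plates.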

[3] = compound: CN(C/C=C/C1=CC=C(C=C1)Cl)CC2=CC=CC=C2N(CCO)S(=O)(=O)C3=CC=C(C=C3)OC [KN-93] + COc1cccc2cc(-c3nc([C@H]4CC[C@H](C(=O)O)CC4)n4ncnc(N)c34)[nH]c12 [OSI-027] (partner 0.5 µM)
Procedure, shortened: as §1

[4] = compound: CN(C/C=C/C1=CC=C(C=C1)Cl)CC2=CC=CC=C2N(CCO)S(=O)(=O)C3=CC=C(C=C3)OC [KN-93] + O=C(CCCCCCC(=O)Nc1ccccc1)NO [Vorinostat] (partner 1 µM)
Procedure, shortened: as §1

[5] = compound: CN(C/C=C/C1=CC=C(C=C1)Cl)CC2=CC=CC=C2N(CCO)S(=O)(=O)C3=CC=C(C=C3)OC [KN-93] + NC(=O)Nc1cc(-c2cccc(F)c2)sc1C(=O)N[C@H]1CCCNC1 [AZD7762] (partner 0.2 µM)
Procedure, shortened: as §1

[6] = compound: CN(C/C=C/C1=CC=C(C=C1)Cl)CC2=CC=CC=C2N(CCO)S(=O)(=O)C3=CC=C(C=C3)OC [KN-93] + CC(=O)Nc1cccc(-n2c(=O)n(C3CC3)c(=O)c3c(Nc4ccc(I)cc4F)n(C)c(=O)c(C)c32)c1 [Trametinib] (partner 0.02 µM)
Procedure, shortened: as §1

[7] = compound: CN(C/C=C/C1=CC=C(C=C1)Cl)CC2=CC=CC=C2N(CCO)S(=O)(=O)C3=CC=C(C=C3)OC [KN-93] + Nc1ncn([C@H]2C[C@H](O)[C@@H](CO)O2)c(=O)n1 [Decitabine] (partner 2 µM)
Procedure, shortened: as §1

[8] = compound: CN(C/C=C/C1=CC=C(C=C1)Cl)CC2=CC=CC=C2N(CCO)S(=O)(=O)C3=CC=C(C=C3)OC [KN-93] + CC(=O)c1c(C)c2cnc(Nc3ccc(N4CCNCC4)cn3)nc2n(C2CCCC2)c1=O [Palbociclib] (partner 0.5 µM)
Procedure, shortened: as §1

[9] = compound: CN(C/C=C/C1=CC=C(C=C1)Cl)CC2=CC=CC=C2N(CCO)S(=O)(=O)C3=CC=C(C=C3)OC [KN-93] + Cc1cc(Nc2cc(N3CCN(C)CC3)nc(Sc3ccc(NC(=O)C4CC4)cc3)n2)n[nH]1 [Tozasertib] (partner 0.1 µM)
Procedure, shortened: as §1

[10] = compound: CN(C/C=C/C1=CC=C(C=C1)Cl)CC2=CC=CC=C2N(CCO)S(=O)(=O)C3=CC=C(C=C3)OC [KN-93] + O=C(c1cc(Cc2n[nH]c(=O)c3ccccc23)ccc1F)N1CCN(C(=O)C2CC2)CC1 [Olaparib] (partner 8 µM)
Procedure, shortened: as §1

With NCI-H1648 the relative viability ([1]; 0.08 µM) was 0.704, the relative viability ([1]; 0.253 µM) was 0.792 and the relative viability ([1]; 2.53 µM) was 0.968. The relative viability ([1]; 8 µM) was 0.526, the relative viability ([2]; first compound 0.08 µM) was 0.717 and the relative viability ([2]; first compound 0.253 µM) was 0.874. The relative viability ([2]; first compound 2.53 µM) was 0.788, the relative viability ([2]; first compound 8 µM) was 0.716 and the relative viability ([3]; first compound 0.08 µM) was 0.263. The relative viability ([3]; first compound 0.253 µM) was 0.254, the relative viability ([3]; first compound 2.53 µM) was 0.229 and the relative viability ([3]; first compound 8 µM) was 0.202. The relative viability ([4]; first compound 0.08 µM) was 0.485, the relative viability ([4]; first compound 0.253 µM) was 0.423 and the relative viability ([4]; first compound 2.53 µM) was 0.322. It also gave a relative viability ([4]; first compound 8 µM) of 0.807, a relative viability ([5]; first compound 0.08 µM) of 0.647 and a relative viability ([5]; first compound 0.253 µM) of 0.727. It also gave a relative viability ([5]; first compound 2.53 µM) of 0.82, a relative viability ([5]; first compound 8 µM) of 0.663 and a relative viability ([6]; first compound 0.08 µM) of 0.403. The relative viability ([6]; first compound 0.253 µM) was 0.445, the relative viability ([6]; first compound 2.53 µM) was 0.381 and the relative viability ([6]; first compound 8 µM) was 0.407. It also gave a relative viability ([7]; first compound 0.08 µM) of 0.459, a relative viability ([7]; first compound 0.253 µM) of 0.45 and a relative viability ([7]; first compound 2.53 µM) of 0.557. For the same cell line, the relative viability ([7]; first compound 8 µM) was 0.34, the relative viability ([8]; first compound 0.08 µM) was 0.251 and the relative viability ([8]; first compound 0.253 µM) was 0.259. For the same cell line, the relative viability ([8]; first compound 2.53 µM) was 0.295, the relative viability ([8]; first compound 8 µM) was 0.291 and the relative viability ([9]; first compound 0.08 µM) was 0.426. It also gave a relative viability ([9]; first compound 0.253 µM) of 0.378, a relative viability ([9]; first compound 2.53 µM) of 0.389 and a relative viability ([9]; first compound 8 µM) of 0.331. For the same cell line, the relative viability ([10]; first compound 0.08 µM) was 0.56, the relative viability ([10]; first compound 0.253 µM) was 0.724 and the relative viability ([10]; first compound 2.53 µM) was 0.568. For the same cell line, the relative viability ([10]; first compound 8 µM) was 0.711.
